For this experiment, the system named is plasma GH. Put plainly: suppression of plasma GH after rGHRH challenge in rat. As to conditions: rat studies (GH and IGF-1 suppression). The class given is in vivo. Here is the method: The in vivo pharmacological efficacy of paltusotine has been examined in rat and dog. In the rat, acute efficacy was evaluated by examining the suppression of plasma GH in response to a challenge with rat growth hormone releasing hormone (rGHRH). […] The effects of chronic, oral, 14-day administration of paltusotine were evaluated by measuring the sustained suppression of IGF-1 in the rat.

Turning to `C[C@@H](O)[C@@H]1NC(=O)[C@H](CCCCN)NC(=O)[C@@H](Cc2c[nH]c3ccccc23)NC(=O)[C@H](Cc2ccccc2)NC(=O)[C@@H](NC(=O)[C@H](N)Cc2ccccc2)CSSC[C@@H](C(=O)N[C@H](CO)[C@@H](C)O)NC1=O` [Octreotide, reference compound], the “maximal effects as positive control” value is recorded as “maximal effects similar to orally administered paltusotine”.

Values taken from patent US12208092B2, “Compositions and methods for administering paltusotine to patients with hepatic impairment” (CRINETICS PHARMACEUTICALS, INC., priority 2023, dated 2025).
